US20210161913A1, “OXYGENATED CHOLESTEROL SULFATES FOR THERAPY OF DISORDERS CAUSED BY AT LEAST ONE OF ATTENUATED LEPTIN ACTIVITY AND A LIPID STORAGE DISORDER” (Virginia Commonwealth University, priority 2015, published 2021)

Experiments:
[1] = test system: leptin-deficient (obese fa/fa) Zucker rats; assay: Liver histo-morphology (HE and Oil Red O staining), hepatic lipidosis in Zucker rats; type: in vivo, rat; parameters: key to Force Rank (Oil Red O): 1 = least severe; 5 = most severe; conditions: for Force Rank (Oil Red O) / Severity of Hepatic Lipidosis: N = 5 males
Text: To examine the effect of 25HC3S on lipid accumulation in sera and in the liver in a leptin-deficient (obese fa/fa) animal model (Zucker rats), 11 week old Zucker rats (Charles River, Wilmington, Mass.) were randomly assigned into four groups. Obese fa/fa Zucker rats have a defective leptin receptor and serve as a general animal model for deficiencies in leptin activity, whether due to low leptin levels, congenital defects in the leptin receptor or acquired leptin resistance, since all result in inadequate or faulty leptin activity. Further, these animals develop unwanted lipid accumulation after several weeks of life due to a genetic mutation in the leptin receptor. All rats were housed under identical conditions with a 12-hour light/12-hour dark cycle and given free access to water and food. The rats (n=5 in each treatment) were gavaged orally with vehicle (10% cellulose) or 25HC3S (10 mg/kg, 30 mg/kg, and 100 mg/kg) once a day for 21 days and fasted overnight (14 hrs) before collection of samples. To compare with gavage administration, other rats (n=10-17 in each treatment) were intraperitoneally injected with vehicle solution (ethanol/PBS; vehicle) or 25HC3S (50 mg/kg) once every three days for 6 weeks and fasted overnight (14 hrs). Blood samples were collected before sacrifice. Serum triglyceride (TG), total cholesterol (CHOL), high density lipoprotein-cholesterol (HDL-C), alkaline phosphatase (ALK), alanine aminotransferase (ALT), and aspartate aminotransferase (AST) were measured using standard enzymatic techniques. Lipoprotein profiles in sera were analyzed by HPLC in the following descriptions. Three specimens from different regions of the liver of each rat were collected and fixed in 4% paraformaldehyde in 0.1 M phosphate buffer at room temperature overnight. The regions of the specimens were standardized for all rats. The paraffin-embedded tissue sections (4 μm) were stained with hematoxylin and eosin (HE). 3-3′-Diaminobenzidine (DAB) was used as the chromogen, and hematoxylin was used as the nuclear counterstain. Determination of total intracellular lipids: Oil Red O staining of intracellular neutral lipids: the liver slides were fixed with 3.7% formaldehyde in PBS for 30 min followed by two washes with phosphate-buffered saline (PBS). The cells were stained with 0.2% Oil Red O in 60% 2-propanol for 10 min and washed three times with PBS. The images were taken with the use of a microscope (Olympus, Tokyo, Japan) equipped with image recorder under 40× lenses. All slides of tissue were qualitatively examined by light microscopy by a board certified veterinary pathologist. The incidence and severity of the lesions were scored. Lesions were also assessed for duration and distribution.

primary hepatocytes = conditions: Ma et al., 2008, Ren et al., 2007, Xu et al., 2010; cited from earlier work
[2] = test system: leptin-deficient (obese fa/fa) Zucker rats; assay: Quantification of hepatic lipids in Zucker rats; type: in vivo, rat; conditions: 21 days
Text: (§1) To examine the effect of 25HC3S on lipid accumulation in sera and in the liver in a leptin-deficient (obese fa/fa) animal model (Zucker rats), 11 week old Zucker rats (Charles River, Wilmington, Mass.) were randomly assigned into four groups. Obese fa/fa Zucker rats have a defective leptin receptor and serve as a general animal model for deficiencies in leptin activity, whether due to low leptin levels, congenital defects in the leptin receptor or acquired leptin resistance, since all result in inadequate or faulty leptin activity. Further, these animals develop unwanted lipid accumulation after several weeks of life due to a genetic mutation in the leptin receptor. All rats were housed under identical conditions with a 12-hour light/12-hour dark cycle and given free access to water and food. The rats (n=5 in each treatment) were gavaged orally with vehicle (10% cellulose) or 25HC3S (10 mg/kg, 30 mg/kg, and 100 mg/kg) once a day for 21 days and fasted overnight (14 hrs) before collection of samples. To compare with gavage administration, other rats (n=10-17 in each treatment) were intraperitoneally injected with vehicle solution (ethanol/PBS; vehicle) or 25HC3S (50 mg/kg) once every three days for 6 weeks and fasted overnight (14 hrs). Blood samples were collected before sacrifice. Serum triglyceride (TG), total cholesterol (CHOL), high density lipoprotein-cholesterol (HDL-C), alkaline phosphatase (ALK), alanine aminotransferase (ALT), and aspartate aminotransferase (AST) were measured using standard enzymatic techniques. Lipoprotein profiles in sera were analyzed by HPLC in the following descriptions.
Liver tissues were homogenized, and the hepatic total lipids were extracted using a mixture of chloroform and methanol (2:1, v:v). After the extracts were filtered, 0.2 ml of each was evaporated to dryness and dissolved in 100 μl of isopropanol containing 10% Triton™ X-100 for cholesterol assay (Wako Chemicals USA, Richmond, Va.), 100 μl of NEFA solution (0.5 g of EDTA-Naz, 2 g of Triton™ X-100, 0.76 ml of 1N NaOH, and 0.5 g of sodium azide/1, pH 6.5) for the free fatty acid assay (Wako Chemicals USA, Richmond, Va.), or 100 μl of isopropanol only for the triglyceride assay (Fisher Scientific, Pittsburgh, Pa.). Each lipid concentration was normalized by liver weight.

[3] = test system: leptin-deficient (obese fa/fa) Zucker rats; assay: Serum lipid levels in leptin-deficient (obese fa/fa) Zucker rats after 25HC3S administration; type: in vivo, rat
Text: as §1, with “descriptions. The lipoproteins, triglycerides and cholesterol in very low density lipoprotein (VLDL), low-density lipoprotein (LDL) and high-density lipoprotein (HDL) were measured by gel filtration using HPLC as previously described (Bai et al., 2012). Briefly, rat serum (100 μl) was eluted with a solvent of 154 mM NaCl with 0.1 mM EDTA (pH 8.0) at a flow rate of 0.2 ml/min via a Pharmacia Superose 6 HR 10/30 FPLC column, and the signal was read at a wavelength of 280 nm. Fractions were collected for 1.2 min each from 20 min up to 100 min. 180 μl of each fraction plus 20 μl of a 10× solution of Wako Total Cholesterol E Reagent (Wako Chemicals USA, Richmond, Va.) was incubated in a 96-well plate at 37° C. for 3 hrs in the dark to analyze cholesterol levels, and the absorbance was read at a wavelength of 595 nm. 2 μl of each fraction plus 200 μl of Infinity™ Triglycerides Reagent (Fisher Scientific, Pittsburgh, Pa.) was incubated in a 96-well plate at 37° C. for 5 minutes in dark to analyze triglyceride levels, and the absorbance was read at a wavelength of 500 nm. The lipoprotein profile was monitored as an internal control.” for “descriptions.”

THP-1 macrophages = conditions: Ma et al., 2008, Ren et al., 2007, Xu et al., 2010; cited from earlier work
[4] = gavage 10 mg/kg, normalized by liver weight
[5] = gavage administration once a day for 21 days, fasted overnight, vs vehicle
[6] = intraperitoneal administration, 50 mg/kg once every three days

For `CC(CCCC(C)(C)O)C1CCC2C3CC=C4CC(OS(=O)(=O)O)CCC4(C)C3CCC12C` (stereo not shown) [25HC3S, 5-cholesten, 3-, 25-diol, 3-sulfate], the “Force Rank (Oil Red O)” value ([1]; 10 mg/kg/day gavage) was 4, the “Severity of Hepatic Lipidosis” value ([1]; 10 mg/kg/day gavage) was “Mild to moderate” and the “Force Rank (Oil Red O)” value ([1]; 30 mg/kg/day gavage) was 3. For the same compound, the “Severity of Hepatic Lipidosis” value ([1]; 30 mg/kg/day gavage) was “Mild to moderate”, the “Force Rank (Oil Red O)” value ([1]; 50 mg/kg IP every 3 days) was 2 and the “Severity of Hepatic Lipidosis” value ([1]; 50 mg/kg IP every 3 days) was “Mild”. The “Force Rank (Oil Red O)” value ([1]; 100 mg/kg/day gavage) was 1, the “Severity of Hepatic Lipidosis” value ([1]; 100 mg/kg/day gavage) was “Mild” and the “lipid inclusions in hepatocytes (HE stained liver sections)” value ([1]; 10, 30 and 100 mg/kg PO (FIGS. 3B, C, D) vs control rats) was “significantly decreased”. The lipid accumulation (primary hepatocytes) was “reduce lipid accumulation”, the “liver free cholesterol concentration” value ([2]; administration of 25HC3S) was “not affected” and the “reduction of liver tissue free fatty acids” value [2, 4] was 26%. For the same compound, the “reduction of liver tissue total cholesterol” value [2, 4] was 25%, the “reduction of liver tissue triglyceride” value [2, 4] was 43% and the “decrease of plasma CHOL” value [3, 5] was 17%. For the same compound, the “decrease of plasma TG” value [3, 5] was 30%, the “change in HDL levels” value ([3]; gavage administration, 21 days) was “no significant change” and the “change in LDL levels” value ([3]; gavage administration, 21 days) was “no significant change”. For the same compound, the “serum HDL” value [3, 6] was “significantly decreased”, the serum total cholesterol [3, 6] was “significantly decreased” and the serum triglyceride [3, 6] was “significantly decreased”. For the same compound, the lipid accumulation (THP-1 macrophages) was “reduce lipid accumulation”.
